Measurements: patent US4868321A, “Isothiocyanate intermediates” (FMC Corporation, priority 1988, dated 1989)

How the values were obtained:
Format in all cases: in vivo
Cotton [1] = assay: Preemergence Herbicidal Activity, Cotton; conditions: Gossypium hirsutum, pre-emergence; for plant injury at 1000 g/ha: 1.0 kg/ha
Procedure, shortened: (§1)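 Applications are made pre- or postemergence from 50/50 acetone/water solutions of each compound. Effect is recorded as % C at the stated kg/ha rate.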

Soybean [2] = assay: Preemergence Herbicidal Activity, Soybean; conditions: Glycine max, pre-emergence; for plant injury at 1000 g/ha: 1.0 kg/ha
Procedure, shortened: (§2)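 Percent control of the crop served as the read-out, with dosing stated in kilograms per hectare.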

Field Corn [3] = assay: Preemergence Herbicidal Activity, Field Corn; conditions: Zea mays, pre-emergence; for plant injury at 1000 g/ha: 1.0 kg/ha
Procedure, shortened: as §2

Rice [4] = assay: Preemergence Herbicidal Activity, Rice; conditions: Oryza sativa, pre-emergence; for plant injury at 1000 g/ha: 1.0 kg/ha
Procedure, shortened: as §2

Wheat [5] = assay: Preemergence Herbicidal Activity, Wheat; conditions: Triticum aestivum, pre-emergence; for plant injury at 1000 g/ha: 1.0 kg/ha
Procedure, shortened: as §2

Field Bindweed [6] = assay: Preemergence Herbicidal Activity, Field Bindweed; conditions: pre-emergence; for pest or weed control at 1000 g/ha: 1.0 kg/ha
Procedure, shortened: as §1

Morningglory [7] = assay: Preemergence Herbicidal Activity, Morningglory; conditions: Ipomoea, pre-emergence; for pest or weed control at 1000 g/ha: 1.0 kg/ha
Procedure, shortened: as §1

Velvetleaf [8] = assay: Preemergence Herbicidal Activity, Velvetleaf; conditions: Abutilon theophrasti, pre-emergence; for pest or weed control at 1000 g/ha: 1.0 kg/ha
Procedure, shortened: as §1

Barnyardgrass [9] = assay: Preemergence Herbicidal Activity, Barnyardgrass; conditions: Echinochloa crus-galli, pre-emergence; for pest or weed control at 1000 g/ha: 1.0 kg/ha
Procedure, shortened: (§3)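 Herbicidal response was graded as percent control. Compound rates were in kg/ha.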

Green Foxtail [10] = assay: Preemergence Herbicidal Activity, Green Foxtail; conditions: Setaria viridis, pre-emergence; for pest or weed control at 1000 g/ha: 1.0 kg/ha
Procedure, shortened: as §3

Johnsongrass [11] = assay: Preemergence Herbicidal Activity, Johnsongrass; conditions: Sorghum halepense, pre-emergence; for pest or weed control at 1000 g/ha: 1.0 kg/ha
Procedure, shortened: as §3

Cotton [12] = assay: Postemergence Herbicidal Activity, Cotton; conditions: Gossypium hirsutum, post-emergence; for plant injury at 1000 g/ha: 1.0 kg/ha
Procedure, shortened: as §1

Soybean [13] = assay: Postemergence Herbicidal Activity, Soybean; conditions: Glycine max, post-emergence; for plant injury at 1000 g/ha: 1.0 kg/ha
Procedure, shortened: as §2

Field Corn [14] = assay: Postemergence Herbicidal Activity, Field Corn; conditions: Zea mays, post-emergence; for plant injury at 1000 g/ha: 1.0 kg/ha
Procedure, shortened: as §2

Rice [15] = assay: Postemergence Herbicidal Activity, Rice; conditions: Oryza sativa, post-emergence; for plant injury at 1000 g/ha: 1.0 kg/ha
Procedure, shortened: as §2

Wheat [16] = assay: Postemergence Herbicidal Activity, Wheat; conditions: Triticum aestivum, post-emergence; for plant injury at 1000 g/ha: 1.0 kg/ha
Procedure, shortened: as §2

Field Bindweed [17] = assay: Postemergence Herbicidal Activity, Field Bindweed; conditions: post-emergence; for pest or weed control at 1000 g/ha: 1.0 kg/ha
Procedure, shortened: as §1

Morningglory [18] = assay: Postemergence Herbicidal Activity, Morningglory; conditions: Ipomoea, post-emergence; for pest or weed control at 1000 g/ha: 1.0 kg/ha
Procedure, shortened: as §1

Velvetleaf [19] = assay: Postemergence Herbicidal Activity, Velvetleaf; conditions: Abutilon theophrasti, post-emergence; for pest or weed control at 1000 g/ha: 1.0 kg/ha
Procedure, shortened: as §1

Barnyardgrass [20] = assay: Postemergence Herbicidal Activity, Barnyardgrass; conditions: Echinochloa crus-galli, post-emergence; for pest or weed control at 1000 g/ha: 1.0 kg/ha
Procedure, shortened: as §3

Green Foxtail [21] = assay: Postemergence Herbicidal Activity, Green Foxtail; conditions: Setaria viridis, post-emergence; for pest or weed control at 1000 g/ha: 1.0 kg/ha
Procedure, shortened: as §3

Johnsongrass [22] = assay: Postemergence Herbicidal Activity, Johnsongrass; conditions: Sorghum halepense, post-emergence; for pest or weed control at 1000 g/ha: 1.0 kg/ha
Procedure, shortened: as §3

Cn1nnn(-c2cc(N(S(C)(=O)=O)S(C)(=O)=O)c(Cl)cc2F)c1=O [Compound 40]
plant injury at 4000 g/ha (Cotton [1]; 4.0 kg/ha): 50%
plant injury at 4000 g/ha (Soybean [2]; 4.0 kg/ha): 20%
plant injury at 4000 g/ha (Field Corn [3]; 4.0 kg/ha): 30%
plant injury at 4000 g/ha (Rice [4]; 4.0 kg/ha): 20%
plant injury at 4000 g/ha (Wheat [5]; 4.0 kg/ha): 30%
pest or weed control at 4000 g/ha (Field Bindweed [6]; 4.0 kg/ha): 40%
pest or weed control at 4000 g/ha (Morningglory [7]; 4.0 kg/ha): 70%
pest or weed control at 4000 g/ha (Velvetleaf [8]; 4.0 kg/ha): 100%
pest or weed control at 4000 g/ha (Barnyardgrass [9]; 4.0 kg/ha): 70%
pest or weed control at 4000 g/ha (Green Foxtail [10]; 4.0 kg/ha): 40%
pest or weed control at 4000 g/ha (Johnsongrass [11]; 4.0 kg/ha): 40%
plant injury at 4000 g/ha (Cotton [12]; 4.0 kg/ha): 40%
plant injury at 4000 g/ha (Soybean [13]; 4.0 kg/ha): 20%
plant injury at 4000 g/ha (Field Corn [14]; 4.0 kg/ha): 20%
plant injury at 4000 g/ha (Rice [15]; 4.0 kg/ha): 10%
plant injury at 4000 g/ha (Wheat [16]; 4.0 kg/ha): 20%
pest or weed control at 4000 g/ha (Field Bindweed [17]; 4.0 kg/ha): 40%
pest or weed control at 4000 g/ha (Morningglory [18]; 4.0 kg/ha): 60%
pest or weed control at 4000 g/ha (Velvetleaf [19]; 4.0 kg/ha): 70%
pest or weed control at 4000 g/ha (Barnyardgrass [20]; 4.0 kg/ha): 60%
pest or weed control at 4000 g/ha (Green Foxtail [21]; 4.0 kg/ha): 30%
pest or weed control at 4000 g/ha (Johnsongrass [22]; 4.0 kg/ha): 30%

CCOC(=O)CN(c1cc(-n2nnn(CCCF)c2=O)c(F)cc1Cl)S(=O)(=O)CC [Compound 17, ethyl [2-chloro-4-fluoro-5-[1,4-dihydro-5-oxo-4-(3-fluoropropyl)tetrazol-1-yl]-phenyl(N--ethylsulfonyl)amino]-acetate]
plant injury at 1000 g/ha (Cotton [1]): 10%
plant injury at 1000 g/ha (Soybean [2]): 10%
plant injury at 1000 g/ha (Field Corn [3]): 10%
plant injury at 1000 g/ha (Rice [4]): 10%
plant injury at 1000 g/ha (Wheat [5]): 20%
pest or weed control at 1000 g/ha (Field Bindweed [6]): 10%
pest or weed control at 1000 g/ha (Morningglory [7]): 30%
pest or weed control at 1000 g/ha (Velvetleaf [8]): 90%
pest or weed control at 1000 g/ha (Barnyardgrass [9]): 20%
pest or weed control at 1000 g/ha (Green Foxtail [10]): 30%
pest or weed control at 1000 g/ha (Johnsongrass [11]): 60%
plant injury at 1000 g/ha (Cotton [12]): 90%
plant injury at 1000 g/ha (Soybean [13]): 50%
plant injury at 1000 g/ha (Field Corn [14]): 60%
plant injury at 1000 g/ha (Rice [15]): 20%
plant injury at 1000 g/ha (Wheat [16]): 40%
pest or weed control at 1000 g/ha (Field Bindweed [17]): 80%
pest or weed control at 1000 g/ha (Morningglory [18]): 60%
pest or weed control at 1000 g/ha (Velvetleaf [19]): 95%
pest or weed control at 1000 g/ha (Barnyardgrass [20]): 40%
pest or weed control at 1000 g/ha (Green Foxtail [21]): 40%
pest or weed control at 1000 g/ha (Johnsongrass [22]): 40%

CCS(=O)(=O)Nc1cc(-n2nnn(CCCF)c2=O)c(Cl)cc1F [Compound 39, 1-[2-Chloro-4-fluoro-5-(N--ethylsulfonylamino)phenyl]-4,5-dihydro-4-(3-fluoropropyl)-5H--tetrazol-5-one]
plant injury at 1000 g/ha (Cotton [1]): 50%
plant injury at 1000 g/ha (Soybean [2]): 10%
plant injury at 1000 g/ha (Field Corn [3]): 70%
plant injury at 1000 g/ha (Rice [4]): 10%
plant injury at 1000 g/ha (Wheat [5]): 20%
pest or weed control at 1000 g/ha (Field Bindweed [6]): 70%
pest or weed control at 1000 g/ha (Morningglory [7]): 100%
pest or weed control at 1000 g/ha (Velvetleaf [8]): 100%
pest or weed control at 1000 g/ha (Barnyardgrass [9]): 60%
pest or weed control at 1000 g/ha (Green Foxtail [10]): 50%
pest or weed control at 1000 g/ha (Johnsongrass [11]): 10%
plant injury at 1000 g/ha (Cotton [12]): 100%
plant injury at 1000 g/ha (Soybean [13]): 95%
plant injury at 1000 g/ha (Field Corn [14]): 50%
plant injury at 1000 g/ha (Rice [15]): 20%
plant injury at 1000 g/ha (Wheat [16]): 30%
pest or weed control at 1000 g/ha (Field Bindweed [17]): 100%
pest or weed control at 1000 g/ha (Morningglory [18]): 100%
pest or weed control at 1000 g/ha (Velvetleaf [19]): 100%
pest or weed control at 1000 g/ha (Barnyardgrass [20]): 50%
pest or weed control at 1000 g/ha (Green Foxtail [21]): 50%
pest or weed control at 1000 g/ha (Johnsongrass [22]): 50%
